Test results taken from patent US8431541B2, “Alpha-amylase inhibitors: the montbretins and uses thereof” (The University of British Columbia, priority 2007, dated 2013).
Each block holds one molecule with its values, some of them ahead of it.

Experiments:
[1] = target: T1, human pancreatic α-amylase (HPA) (Homo sapiens, UniProt P04746); assay: Kinetic analysis of HPA inhibition; assay type: biochemical
T1 sequence (P04746 16-511): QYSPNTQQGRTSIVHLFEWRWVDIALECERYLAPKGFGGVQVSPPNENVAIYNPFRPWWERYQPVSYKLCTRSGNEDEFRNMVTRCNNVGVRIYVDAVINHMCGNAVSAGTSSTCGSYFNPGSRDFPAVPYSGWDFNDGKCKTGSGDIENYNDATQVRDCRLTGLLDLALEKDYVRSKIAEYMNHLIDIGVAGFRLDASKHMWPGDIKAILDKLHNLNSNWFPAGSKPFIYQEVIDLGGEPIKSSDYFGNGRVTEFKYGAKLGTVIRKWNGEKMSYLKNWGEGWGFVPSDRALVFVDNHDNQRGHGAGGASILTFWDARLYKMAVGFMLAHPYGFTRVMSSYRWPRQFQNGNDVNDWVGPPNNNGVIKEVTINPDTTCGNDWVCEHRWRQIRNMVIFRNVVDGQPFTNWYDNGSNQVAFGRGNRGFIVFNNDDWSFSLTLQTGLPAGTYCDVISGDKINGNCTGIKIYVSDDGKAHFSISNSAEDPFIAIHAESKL

[2] = Aqueous solubility (observation)
human salivary α-amylase = target: T2, human salivary α-amylase (Homo sapiens, UniProt P0DUB6); settings: Lo Piparo et al., J. Med. Chem. 2008; read-out: IC50, inhibition of human salivary α-amylase; cited from earlier work
T2 sequence (P0DUB6 16-511): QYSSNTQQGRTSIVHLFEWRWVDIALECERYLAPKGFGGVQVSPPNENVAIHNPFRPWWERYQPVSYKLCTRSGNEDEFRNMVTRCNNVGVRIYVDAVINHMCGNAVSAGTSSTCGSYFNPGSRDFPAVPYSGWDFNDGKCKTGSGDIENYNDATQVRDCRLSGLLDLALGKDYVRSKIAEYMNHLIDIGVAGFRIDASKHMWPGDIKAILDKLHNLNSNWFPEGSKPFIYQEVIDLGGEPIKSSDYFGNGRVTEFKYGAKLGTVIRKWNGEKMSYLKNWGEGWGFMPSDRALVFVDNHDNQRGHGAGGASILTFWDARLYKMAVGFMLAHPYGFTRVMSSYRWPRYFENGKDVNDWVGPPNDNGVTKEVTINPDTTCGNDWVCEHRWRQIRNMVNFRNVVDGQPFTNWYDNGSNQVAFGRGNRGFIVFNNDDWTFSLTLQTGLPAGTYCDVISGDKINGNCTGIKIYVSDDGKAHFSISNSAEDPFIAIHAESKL

[3] = target: T3, porcine pancreatic α-amylase (Sus scrofa, UniProt P00690); settings: Taderal et al. 2006; read-out: IC50, inhibition of porcine pancreatic α-amylase; cited from earlier work
T3 sequence (P00690 16-511): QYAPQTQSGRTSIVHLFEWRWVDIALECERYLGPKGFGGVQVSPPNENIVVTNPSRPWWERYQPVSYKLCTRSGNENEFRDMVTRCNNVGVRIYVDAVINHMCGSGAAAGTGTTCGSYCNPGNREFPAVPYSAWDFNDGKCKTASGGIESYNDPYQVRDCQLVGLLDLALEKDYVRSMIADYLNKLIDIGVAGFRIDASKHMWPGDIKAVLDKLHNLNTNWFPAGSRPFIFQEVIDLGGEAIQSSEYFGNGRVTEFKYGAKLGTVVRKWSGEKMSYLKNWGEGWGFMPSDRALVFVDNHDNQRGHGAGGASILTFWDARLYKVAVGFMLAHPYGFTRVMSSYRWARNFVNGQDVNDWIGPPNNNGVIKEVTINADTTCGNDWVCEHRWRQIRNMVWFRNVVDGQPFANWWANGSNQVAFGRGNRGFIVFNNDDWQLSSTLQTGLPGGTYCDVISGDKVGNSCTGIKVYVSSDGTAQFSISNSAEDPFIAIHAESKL

[4] = system: control and STZ-diabetic rats; assay: Acute starch tolerance test; assay type: in vivo, rat; settings: STZ-diabetic rats, starch tolerance test; extracts 5 mg/kg
Experimental: Twenty-four animals were obtained at 200-250 g of body weight and randomly divided into control and diabetic groups. Diabetes was induced by a single intravenous tail vein injection of streptozotocin 60 mg/kg in 0.9% normal saline. Control rats received normal saline injections only. Animals were subsequently divided into acarbose untreated and treated. […] Starch was obtained from Fisher Scientific and a 17.5% suspension was made in distilled water. The dose of starch given was […].
The animals were fasted overnight. A basal blood sample was collected (50 μl volume) and then at 30, 60, 90 and 120 minutes post drug administration. Starch and starch+acarbose was administered by oral gavage. Blood was centrifuged at 10,000 g×25 minutes and plasma collected for determination of glucose levels using a Beckman Glucose Analyzer II™. There was no difference in body weight among the groups. There was a significant increase in plasma glucose 30 and 60 minutes following starch administration in the diabetic untreated group only.
The twenty-four animals from Example 6 were used following a wash out period of one week. Animals were divided into montbretin A untreated and treated. The four treatment groups were: control, n=6, control+montbretin A, n=6, diabetic, n=6 and diabetic+montbretin A, n=6. The procedures used in Example 6 were employed. Montbretin A was dissolved in distilled water at a concentration of 10 mg/ml and given at a volume of 1 ml/kg. The dose of montbretin A given was 10 mg/kg. There was no difference in body weight among the groups. There was a significant increase in plasma glucose levels in the diabetic untreated group at 30 and 60 minutes following starch administration.
A study was done to determine the effect of various amounts of montbretin A and montbretin extracts on plasma glucose levels in response to a starch challenge in STZ-diabetic rats. Diabetic animals used in the previous Examples were used following a wash out period of one week. The six experimental groups were: diabetic (D, n=3) diabetic+montbretin A (5 mg/kg), (DT5, n=3), diabetic+montbretin A (1 mg/kg), (DT1, n=3), diabetic+montbretin A (0.5 mg/kg), (DT0.5, n=3), diabetic+Crocosmia corm methanol extract (5 mg/kg), (DM, n=3) and diabetic+Crocosmia corm ethanol extract (5 mg/kg), (DE, n=2).
Montbretin A was dissolved in distilled water at a concentration of 5, 1 or 0.5 mg/ml and given at a volume of 1 ml/kg. The methanol extract contained montbretin A at a concentration of 3.2 mg/ml and ethanol extract at a concentration of 1.6 mg/ml. These extracts were dried and resuspended in distilled water. There was no difference in body weight among the groups. […] Diarrhea occurred in 2 out 3 animals given the methanol extract and in 1 out of 2 animals given the ethanol extract. […]

[5] = Stability in simulated gastric fluid (SGF) by UPLC; assay type: in vitro ADME; settings: positive control, 0.5 mg/ml, 37° C., 1 hour
Experimental: (§1) The stability of montbretin A in both simulated intestinal fluid (SIF) and simulated gastric fluid (SGF) were analyzed via ultra performance liquid chromatography (UPLC). The instrument consisted of a Waters® Acquity™ UPLC system equipped with a PDA and a TQ detector in tandem. The 2 μL sample injection volume was passed through a Waters® Acquity™ BEH C18 column (1.7 μm, 2.1×100 mm), with mobile phases A and B consisting of water with 0.1% formic acid and acetonitrile with 0.1% formic acid, respectively. The mobile phases were delivered at a programmed linear gradient at a column temperature of 35° C. Linearity was evaluated using a set of montbretin A calibration standards with concentrations ranging from 10 to 100 μg/mL in water. […]
(§2) To examine the gastrointestinal fluid activity, 0.5 mg/ml solutions of oleamide (positive control) in SGF or SIF were prepared by diluting a 100 μL aliquot of oleamide (50 mg/mL in 2-propanol) to 10 mL with either SGF or SIF and incubated in a 37° C. water bath for 1 or 3 hours, respectively. At time points of 1 or 3 hours, the sample was removed from the water bath and a 100 μL aliquot of the resulting solution was diluted to 1 mL with de-ionized water in a glass UPLC glass sample vial and analyzed by UPLC for oleamide content. […]

[6] = Stability in simulated intestinal fluid (SIF) by UPLC; assay type: in vitro ADME; settings: positive control, 0.5 mg/ml, 37° C., 3 hours
Experimental: as §1, §2

[7] = range finder method, Dixon plot, fixed substrate concentration

Ki [1, 7]: 6.1 ± 0.1 µM
Molecule: montbretin C

Ki [1, 7]: 3.6 ± 0.1 µM
Molecule: CC1O[C@@H](O[C@@H]2CO[C@@H](Oc3c(O)cc(-c4oc5cc(O)cc(O)c5c(=O)c4O[C@@H]4OC(C)[C@H](O)[C@H](O)C4O[C@@H]4OC(COC(=O)/C=C/c5ccc(O)cc5)[C@@H](O)[C@@H](O)C4O[C@@H]4OC(CO)[C@@H](O)[C@@H](O)C4O)cc3O)C(O)[C@@H]2O)C(O)[C@@H](O)[C@H]1O (some centres unmarked) [Montbretin B, montbretin B]

More lines, now with the values behind:

Molecule: CCOC(=O)/C=C/c1ccc(O)c(O)c1 [ethyl caffeiate, reference compound]
mode of inhibition of HPA ([1]; double reciprocal plot): non-competitive
Ki ([1]; varied substrate and inhibitor concentrations, GraFit): 1300 ± 100 µM
aqueous solubility [2]: limited aqueous solubility

Molecule: O=c1c(O)c(-c2cc(O)c(O)c(O)c2)oc2cc(O)cc(O)c12 [myricetin]
IC50 (human salivary α-amylase): > 9 µM
aqueous solubility [2]: limited aqueous solubility
IC50 [3]: 380 µM

Molecule: montbretin A
occurrence of diarrhea [4]: No diarrhea

Molecule: CCCCCCCC/C=C\CCCCCCCC(N)=O [Oleamide, oleamide, reference compound]
change of concentration after incubation in SGF [5]: significant decrease in concentration
change of concentration after incubation in SIF [6]: significant decrease in concentration
